Reference: publication PMC10938439, “C-3 Steroidal Hemiesters as Inhibitors of 17β-Hydroxysteroid Dehydrogenase Type 10” (ACS Omega, 2024)
“And” between values parts separate entries of the source, which are not always exact repeats. Equal values may be shown once. Read-outs that look alike come from different tables or passages of the source.

Columns and labels:
17β-HSD10 [1] = test system: 17β-HSD10; set-up: method as in PMID 37458164; conditions: 17β-HSD10 inhibition, literature value; cited from earlier work
17β-HSD10 [2] = molecular target: T1, 17β-HSD10 (Homo sapiens, UniProt Q99714); assay: Inhibition of 17β-estradiol to estrone transformation by purified recombinant 17β-HSD10 (NADH fluorescence); assay type: biochemical; conditions: for inhibition at 10 µM: read-out: Inhibition at 10 µM (%) (this study); for IC50: purified recombinant 17β-HSD10, 17β-estradiol as substrate, means ± SEM (n = 4); for inhibition at 1 µM: read-out: Inhibition at 1 µM (%) (this study)
T1 construct: inferred from Ni-NTA purification with imidazole elution; made in house; host or cells: E. coli BL21 (DE3)
T1 sequence (Q99714 1-261): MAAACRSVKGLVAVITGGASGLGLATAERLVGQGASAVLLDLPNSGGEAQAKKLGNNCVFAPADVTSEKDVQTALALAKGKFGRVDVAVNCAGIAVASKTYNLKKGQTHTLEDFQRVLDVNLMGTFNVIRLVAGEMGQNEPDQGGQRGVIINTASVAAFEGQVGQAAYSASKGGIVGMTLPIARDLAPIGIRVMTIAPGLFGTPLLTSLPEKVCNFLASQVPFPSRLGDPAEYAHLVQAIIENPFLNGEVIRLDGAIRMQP
Description: As standards, we used the known inhibitor AG18051 as the positive control and the published steroidal compounds,[18] namely, pregnenolone, testosterone, dihydrotestosterone, androsterone, epiandrosterone, and dehydroepiandrosterone.
17β-HSD10 was performed as described previously.[11] Briefly, the autoinduction and overexpression were performed at 25 °C for 18 h in the E. coli BL21 (DE3) strain. The bacterial pellet was resuspended in lysis buffer that consisted of sodium phosphate buffer ([…]), NaCl (150 mM), and imidazole (10 mM, pH 8.0) with 1 mg/mL lysozyme and benzonase (150 U/mL). cOmplete EDTA-free protease inhibitor cocktail was incubated for 20 min on ice and then sonicated (12 × 10 s pulses with 30 s pauses). The supernatant was applied to the Ni-NTA agarose resin after centrifugation (16 000g, 10 min, 4 °C). Then, the solution was incubated on ice for 1 h with gentle stirring.
The standard steroids were screened at 1 and 10 μM concentrations, and the tested compounds and standard AG18051 were screened at 10 μM concentration. For compounds with at least 50% inhibition of 17β-HSD10, the IC50 values were determined.
Steroid stock solutions (5 mM) were further diluted with DMSO to the working concentrations. DMSO was used as a vehicle control, and AG18051 was used as a control inhibitor. The enzyme activity was determined fluorometrically at 37 °C in the activity assay buffer [100 mM potassium phosphate buffer (pH 8.0)]. The general reaction mixture (200 μL per well) consisted of 17β-estradiol (25 μM, DMSO), NAD+ (500 μM, deionized water), recombinant 17β-HSD10 (45 nM), and different concentrations of inhibitor (2.2% (v/v) final concentration of DMSO as solvent). Before the addition of substrate, the reaction mixture of enzyme, cofactor, and inhibitor in the assay buffer was preincubated for 5 min at 37 °C. The increase of fluorescence (Ex/Em = 340/460 nm) due to the formation of NADH was monitored for 20 min (30 s intervals). For IC50 value determination, dose–response inhibition at 11 different concentrations of inhibitor (0.6–33.75 μM) was determined and the data were analyzed by GraphPad Prism 8.4.3 (GraphPad Software Inc.). All measurements were performed in a tetraplicate.

Caco-2 cells = test system: Caco-2 cells; set-up: method as in PMID 30296546; conditions: cited from earlier work
[3] = set-up: method as in PMID 30296546; conditions: cited from earlier work
[4] = set-up: method as in PMID 30296546; conditions: cited from earlier work; remark: listed apart in the source
HEK-293 cell line = test system: HEK-293 cell line; set-up: method as in PMID 37458164; conditions: cited from earlier work
17β-HSD10 [5] = test system: 17β-HSD10; set-up: method as in PMID 30297283; conditions: in vitro, recombinant enzyme, cited from earlier work
17β-HSD10 [6] = conditions: cited from earlier work; for Inhibition at 1 µM (%) Ayan et al. 2012: 1 µM steroid, different (cellular) assay, ref Ayan et al. 2012 (ref 18)
[7] = 10 μM compound, 17β-estradiol as substrate, means ± SD (n = 4)

Structure (SMILES) | IC50 (17β-HSD10 [2]) | Caco-2 cell permeability (50 μM) Papp (Caco-2 cells) | rat plasma stability, % remaining after 8 h [3] [%] | human plasma stability, % remaining after 8 h [4] [%] | inhibition at 1 µM (17β-HSD10 [2]) [%] | inhibition at 10 µM (17β-HSD10 [2]) [%] | Inhibition at 1 µM (%) Ayan et al. 2012 (17β-HSD10 [6]) [%] | further results
O=C(C(c1ccccc1)n1cnc2[nH]ncc2c1=S)N1CCCCCC1 (stereo not shown) [AG18051, 1-azepan-1-yl-2-phenyl-2-(4-thioxo-1,4-dihydropyrazolo [3–d]pyrimidin-5-yl)-ethanone] | – | – | – | – | – | – | – | IC50 (17β-HSD10 [1]): 90 ± 10 nM
CC(=O)[C@H]1CC[C@H]2[C@@H]3CC=C4C[C@@H](OC(=O)CCCC(=O)O)CC[C@]4(C)[C@H]3CC[C@]12C [Compound 10, 20-Oxo-pregn-5-en-3β-yl Hemiglutarate] | 16.9 ± 1.33 µM | – | – | – | – | – | – | inhibition at 10 µM (17β-HSD10 [2]; [7]): ~50%
CC[C@H]1CC[C@H]2[C@@H]3CC=C4C[C@@H](OC(=O)CCC(=O)O)CC[C@]4(C)[C@H]3CC[C@]12C [Compound 14, Pregn-5-en-3β-yl Hemisuccinate] | 9.94 ± 0.23 µM | 5.7 × 10^–6 cm/s | 55 | 100 | – | – | – | –
CC[C@H]1CC[C@H]2[C@@H]3CC=C4C[C@@H](OC(=O)CCCC(=O)O)CC[C@]4(C)[C@H]3CC[C@]12C [Compound 15, Pregn-5-en-3β-yl Hemiglutarate] | 9.01 ± 0.43 µM | 1.9 × 10^–6 cm/s | 99 | 100 | – | – | – | –
CC[C@H]1CC[C@H]2[C@@H]3CC=C4C[C@@H](OC(=O)CCCCC(=O)O)CC[C@]4(C)[C@H]3CC[C@]12C [Compound 16, Pregn-5-en-3β-yl Hemiadipate] | 9.29 ± 0.28 µM | 1.2 × 10^–6 cm/s | 43 | 94 | – | – | – | –
C[C@@]12CCC[C@H]1[C@@H]1CC=C3C[C@@H](OC(=O)CCC(=O)O)CC[C@]3(C)[C@H]1CC2 [Compound 21, Androst-5-en-3β-yl Hemisuccinate] | 7.33 ± 0.45 µM | 1.0 × 10^–4 cm/s | 88 | 99 | – | – | – | –
C[C@@]12CCC[C@H]1[C@@H]1CC=C3C[C@@H](OC(=O)CCCC(=O)O)CC[C@]3(C)[C@H]1CC2 [Compound 22, Androst-5-en-3β-yl Hemiglutarate] | ~6.95 µM and 6.95 µM | 1.2 × 10^–5 cm/s | 57 | 98 | – | – | – | –
C[C@@]12CCC[C@H]1[C@@H]1CC=C3C[C@@H](OC(=O)CCCCCC(=O)O)CC[C@]3(C)[C@H]1CC2 [Compound 24, Androst-5-en-3β-yl Hemipimelate] | 7.17 ± 0.4 µM | 1.3 × 10^–6 cm/s | 38 | 100 | – | – | – | –
CC(=O)[C@H]1CC[C@H]2[C@@H]3CCC4=C[C@@H](O)CC[C@]4(C)[C@H]3CC[C@]12C [Compound 26] | – | – | – | – | – | – | – | toxicity for HEK-293 cell line (HEK-293 cell line): toxic
COc1cccc(CN2CCN(C[C@@]3(O)CC[C@@]4(C)[C@@H](CC[C@@H]5[C@@H]4CC[C@]4(C)C(=O)CC[C@@H]54)C3)CC2)c1 [RM-532-46, (3α,5α,17α)-3-Hydroxy-3-[4-(3-methoxybenzyl)piperazin-1-yl]methylandrostan-17-one] | – | – | – | – | – | – | – | IC50 (17β-HSD10 [5]; 17β-estradiol, read-out: IC50 using 17β-estradiol as substrate): 610 µM; IC50 (17β-HSD10 [5]; allopregnanolone, read-out: IC50 using allopregnanolone as substrate): 235 µM; IC50 (17β-HSD10 [6]; cellular assay using HEK-293 cells): 550 nM
C[C@]12CC[C@@H](O)C[C@@H]1CC[C@@H]1[C@@H]2CC[C@]2(C)C(=O)CC[C@@H]12 [androsterone] | – | – | – | – | 3.2 ± 2.2 | 0 | 7.0 ± 5.9 | –
C[C@]12CC[C@H](O)CC1=CC[C@@H]1[C@@H]2CC[C@]2(C)C(=O)CC[C@@H]12 [dehydroepiandrosterone] | – | – | – | – | 5.4 ± 3.7 | 6.6 ± 3.5 | 0.0 ± 3.2 | –
C[C@]12CCC(=O)C[C@@H]1CC[C@@H]1[C@@H]2CC[C@]2(C)[C@@H](O)CC[C@@H]12 [dihydrotestosterone] | – | – | – | – | 0 | 6.3 ± 2 | 15 ± 0.8 | –
C[C@]12CC[C@H](O)C[C@@H]1CC[C@@H]1[C@@H]2CC[C@]2(C)C(=O)CC[C@@H]12 [epi-androsterone, epiandrosterone] | – | – | – | – | 2 ± 4.9 | 7 ± 2.5 | 6.0 ± 1.0 | –
CC(=O)C1CCC2C3CC=C4CC(O)CCC4(C)C3CCC12C (stereo not shown) [pregnenolone] | – | – | – | – | – | – | 11 ± 2.6 | inhibition at 1 µM (17β-HSD10 [2]; 1 µM steroid, 17β-estradiol as substrate, means ± SD (n = 4)): 0%; inhibition at 10 µM (17β-HSD10 [2]; [7]): 5.9 ± 0.8%
C[C@]12CC[C@H]3[C@@H](CCC4=CC(=O)CC[C@@]43C)[C@@H]1CC[C@@H]2O [testosterone] | – | – | – | – | 10.3 ± 5.1 | 15.7 ± 3.8 | 0.0 ± 3.2 | –
